The source of these data is patent US20210401710A1, “AZOXYSTROBIN EFFICACY IN PERSONAL CARE FORMS” (The Procter & Gamble Company, priority 2020, published 2021).

This experiment relates to Malassezia furfur (CBS 7982). The experiment can be described thus: In Vitro Antifungal Minimum Inhibitory Concentration (MIC) Testing. The class given is cell-based. To be noted: azoxystrobin itself against Malassezia, value used in the model. How it is done:
Malassezia furfur (CBS 7982) is maintained continuously as a culture at 31° C. in a 250-ml vent-capped polycarbonate Erlenmeyer flask by combining approximately 50 ml of mDixon growth medium and 2.5 ml of previously grown Malassezia culture. For each assay, Malassezia cells from 24-hour-old culture (approximately 7.5×10^8 cells/ml) are diluted 500-fold into mDixon growth medium. Micropipettes are used to transfer 295 ul of diluted cells to each well of a Beckman 267007 polypropylene round-bottom deep-well plate. Product forms are prepared for testing as concentrated stocks in water. Micropipettes are used to transfer 5 ul of appropriately diluted product form to the diluted Malassezia cells in the round-bottom deep-well plate. A semipermeable sealing film is applied to the plate which is then covered with water-soaked cotton batting. The deep-well plates are shaken at 31° C. on a Heidolph Titramax 1000 shaker at 1350 rpm for approximately 20 hours. The samples are mixed by micropipetting before transferring 200 ul of sample culture from each well to a Corning 3596 polystyrene plate. The plates are read immediately for absorbance at 600 nm using a Molecular Devices SpectraMax M5 plate reader. MIC values are presented as ppm of active.

In the case of `CO/C=C(/C(=O)OC)c1ccccc1Oc1cc(Oc2ccccc2C#N)ncn1` [Azoxystrobin], the “minimal inhibitory concentration (MIC)” value was 0.2-0.9 ppm.
